pKi: −log10 of the molar value. Like-named read-outs stand apart in the source and are kept apart here.
Tests used:
[1] = biological target: T1, human σ2 receptor (TMEM97) (Homo sapiens, UniProt Q5BJF2); experiment: [3H]-DTG competition binding, Expi293 membranes
[2] = biological target: T1, human σ2 receptor (TMEM97); experiment: [3H]-DTG competition binding, Expi293 membranes; remark: listed apart in the source
[3] = 10 nM [3H]-DTG, 50 mM Tris pH 8.0, 37 °C, 90 min

T1 sequence (Q5BJF2 whole entry): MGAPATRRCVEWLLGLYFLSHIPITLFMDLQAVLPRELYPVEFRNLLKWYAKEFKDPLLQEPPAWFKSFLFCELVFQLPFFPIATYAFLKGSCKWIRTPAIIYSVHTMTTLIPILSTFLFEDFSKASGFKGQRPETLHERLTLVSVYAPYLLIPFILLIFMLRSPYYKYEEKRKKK

Row | pKi [2, 3] | Compound | pKi [1, 3] | also measured
1 |  | c1ccc(CCCN2CCC(c3nnc4ccccn34)CC2)cc1 [Z163048780] |  | pKi [1]: < 5.00
2 |  | C1=C(c2c[nH]c3ccccc23)CCN(CCCc2ccccc2)C1 [Z295861754] |  | pKi [2]: 7.24
3 |  | C1=C(c2c[nH]c3ncccc23)CCN(CCCc2ccccc2)C1 [Z1241145220] | 8.43 | 
4 |  | OC(CCc1ccccc1)CN1CC=C(c2c[nH]c3ncccc23)CC1 (stereo not drawn) [Z1665845742] | 8.30 | 
5 | 8.37 | ZINC450573233 |  | 
6 | 7.67 | ZINC895657866 |  | 

Reference: paper doi:10.1101/2021.04.29.441652v1 (biorxiv, 2021)
